From US5843889A, “Glycopeptide antibiotic derivatives” (Eli Lilly and Company, priority 1997, dated 1998)
≈ marks a conversion by molar mass, not a printed value.

Tests used:
Assay type in all cases: cell-based
[1] = test system: Entercoccus gallinarum 245; assay: MIC, standard broth micro-dilution assay
Procedure: (§1) The formula I compounds have in vitro and in vivo activity against Gram-positive pathogenic bacteria. The MIC's were determined using a standard broth micro-dilution assay.

Entercoccus faecalis 276 = assay: MIC, standard broth micro-dilution assay
Procedure: as §1

[2] = test system: Entercoccus faecalis 2041; assay: MIC, standard broth micro-dilution assay
Procedure: as §1

Pediococcus pentosaceus = assay: MIC, agar dilution on brain-heart infusion agar; details: Pediococcus pentosaceus (mean of 2)
Lactobacillus confusus = assay: MIC, agar dilution on brain-heart infusion agar
[3] = test system: Leuconostoc mesenteroides; assay: MIC, agar dilution on brain-heart infusion agar; details: Leuconostoc mesenteroides (mean of 4)
Pedicoccus acidilacti = assay: MIC, agar dilution on brain-heart infusion agar; details: Pedioccccus acidilacti (mean of 10)
[4] = test system: Leuconostoc pseudomesenteroides; assay: MIC, agar dilution on brain-heart infusion agar
Leuconostoc citreum = assay: MIC, agar dilution on brain-heart infusion agar
Leuconostoc lactis = assay: MIC, agar dilution on brain-heart infusion agar; details: Leuconostoc lactis (mean of 2)
[5] = test system: Staphylococcus aureus 489; assay: MIC, standard broth micro-dilution assay
Procedure: (§2) The MIC's were determined using a standard broth micro-dilution assay.

[6] = test system: Staphylococcus aureus SA1199A; assay: MIC, standard broth micro-dilution assay
Procedure: as §2

[7] = test system: Staphylococcus haemolyticus 105; assay: MIC, standard broth micro-dilution assay
Procedure: as §2

Escherichia coli EC14 = assay: MIC, standard broth micro-dilution assay
Procedure: as §2

[8] = test system: Staphylococcus epidermidis 270; assay: MIC, standard broth micro-dilution assay
Procedure: as §2

[9] = test system: Staphylococcus aureus X400; assay: MIC, standard broth micro-dilution assay
Procedure: as §2

[10] = test system: Streptococcus pyogenes C203; assay: MIC, standard broth micro-dilution assay
Procedure: as §2

[11] = test system: Staphylococcus aureus 446; assay: MIC, standard broth micro-dilution assay
Procedure: as §2

[12] = test system: Staphylococcus aureus X778; assay: MIC, standard broth micro-dilution assay
Procedure: as §2

[13] = test system: Staphylococcus haemolyticus 415; assay: MIC, standard broth micro-dilution assay
Procedure: as §2

[14] = test system: Staphylococcus aureus SA1199; assay: MIC, standard broth micro-dilution assay
Procedure: as §2

[15] = test system: Entercoccus faecium 180-1; assay: MIC, standard broth micro-dilution assay
Procedure: as §2

[16] = test system: Streptococcus pneumoniae P1; assay: MIC, standard broth micro-dilution assay
Procedure: as §2

[17] = test system: Staphylococcus aureus 491; assay: MIC, standard broth micro-dilution assay
Procedure: as §2

Entercoccus faecium 180 = assay: MIC, standard broth micro-dilution assay
Procedure: as §2

[18] = test system: Staphylococcus aureus 447; assay: MIC, standard broth micro-dilution assay
Procedure: as §2

[19] = test system: Staphylococcus aureus S13E
Procedure: as §2

[20] = test system: Staphylococcus aureus SA1199B
Procedure: as §2

With `CNC(CC(C)C)C(=O)NC1C(=O)NC(CC(N)=O)C(=O)NC2C(=O)NC3C(=O)NC(C(=O)NC(C(=O)O)c4cc(O)cc(O)c4-c4cc3ccc4O)C(OC3CC(C)(N)C(O)C(C)O3)c3ccc(c(Cl)c3)Oc3cc2cc(c3OC2OC(CO)C(O)C(O)C2OC2CC(C)(NCc3ccc(-c4ccc(-c5ccccc5)cc4)cc3)C(O)C(C)O2)Oc2ccc(cc2Cl)C1O` (centres unmarked) [Compound 36, 4-[4-biphenyl]benzyl] the MIC [1] was 0.25 µg/mL (≈ 0.136 µM), the MIC (Entercoccus faecalis 276) was 2 µg/mL (≈ 1.09 µM) and the MIC [2] was 1 µg/mL (≈ 0.545 µM). The MIC (Pediococcus pentosaceus) was 16 µg/mL (≈ 8.72 µM), the MIC (Lactobacillus confusus) was 32 µg/mL (≈ 17.4 µM) and the MIC [3] was 16 µg/mL (≈ 8.72 µM). The MIC (Pedicoccus acidilacti) was 9.2 µg/mL (≈ 5.01 µM), the MIC [4] was 32 µg/mL (≈ 17.4 µM) and the MIC (Leuconostoc citreum) was 32 µg/mL (≈ 17.4 µM). The MIC (Leuconostoc lactis) was 16 µg/mL (≈ 8.72 µM).
For `CCCCCOc1ccc(-c2ccc(CNC3(C)CC(OC4C(Oc5c6cc7cc5Oc5ccc(cc5Cl)C(OC5CC(C)(N)C(O)C(C)O5)C5NC(=O)C(NC(=O)C7NC(=O)C(CC(N)=O)NC(=O)C(NC(=O)C(CC(C)C)NC)C(O)c7ccc(c(Cl)c7)O6)c6ccc(O)c(c6)-c6c(O)cc(O)cc6C(C(=O)O)NC5=O)OC(CO)C(O)C4O)OC(C)C3O)cc2)cc1` (centres unmarked) [Compound 40, 4-[4-pentoxyphenyl]benzyl], the MIC [1] was 11 µg/mL (≈ 5.96 µM), the MIC (Entercoccus faecalis 276) was 2 µg/mL (≈ 1.08 µM) and the MIC [2] was 1 µg/mL (≈ 0.542 µM). For the same compound, the MIC [5] was 4 µg/mL (≈ 2.17 µM), the MIC [6] was 0.5 µg/mL (≈ 0.271 µM) and the MIC [7] was 2 µg/mL (≈ 1.08 µM). For the same compound, the MIC (Escherichia coli EC14) was over 64 µg/mL, the MIC [8] was 1 µg/mL (≈ 0.542 µM) and the MIC [9] was 4 µg/mL (≈ 2.17 µM). It also gave an MIC [10] of at most 0.06 µg/mL, an MIC [11] of 4 µg/mL (≈ 2.17 µM) and an MIC [12] of 4 µg/mL (≈ 2.17 µM). For the same compound, the MIC [13] was 2 µg/mL (≈ 1.08 µM), the MIC [14] was 4 µg/mL (≈ 2.17 µM) and the MIC [15] was 2 µg/mL (≈ 1.08 µM). It also gave an MIC [16] of at most 0.06 µg/mL, an MIC [17] of 4 µg/mL (≈ 2.17 µM) and an MIC (Entercoccus faecium 180) of 1 µg/mL (≈ 0.542 µM). For the same compound, the MIC [18] was 2 µg/mL (≈ 1.08 µM), the MIC [19] was 4 µg/mL (≈ 2.17 µM) and the MIC [20] was 8 µg/mL (≈ 4.34 µM).
`CNC(CC(C)C)C(=O)NC1C(=O)NC(CC(N)=O)C(=O)NC2C(=O)NC3C(=O)NC(C(=O)NC(C(=O)O)c4cc(O)cc(O)c4-c4cc3ccc4O)C(OC3CC(C)(N)C(O)C(C)O3)c3ccc(c(Cl)c3)Oc3cc2cc(c3OC2OC(CO)C(O)C(O)C2OC2CC(C)(NCc3ccc(C=Cc4ccccc4)cc3)C(O)C(C)O2)Oc2ccc(cc2Cl)C1O` (centres unmarked) [Compound 29, 4-stilbenzyl] gave an MIC [1] of 0.25 µg/mL (≈ 0.14 µM), an MIC (Entercoccus faecalis 276) of 0.25 µg/mL (≈ 0.14 µM) and an MIC [2] of 0.25 µg/mL (≈ 0.14 µM). For the same compound, the MIC (Pediococcus pentosaceus) was 8.0 µg/mL (≈ 4.48 µM), the MIC (Lactobacillus confusus) was 8 µg/mL (≈ 4.48 µM) and the MIC [3] was 6.7 µg/mL (≈ 3.75 µM). The MIC (Pedicoccus acidilacti) was 4.0 µg/mL (≈ 2.24 µM), the MIC [4] was 16 µg/mL (≈ 8.97 µM) and the MIC (Leuconostoc citreum) was 32 µg/mL (≈ 17.9 µM). It also gave an MIC (Leuconostoc lactis) of 5.7 µg/mL (≈ 3.19 µM).
Compound `CNC(CC(C)C)C(=O)NC1C(=O)NC(CC(N)=O)C(=O)NC2C(=O)NC3C(=O)NC(C(=O)NC(C(=O)O)c4cc(O)cc(O)c4-c4cc3ccc4O)C(OC3CC(C)(N)C(O)C(C)O3)c3ccc(c(Cl)c3)Oc3cc2cc(c3OC2OC(CO)C(O)C(O)C2OC2CC(C)(NCc3ccc(OC4CCCCC4)cc3)C(O)C(C)O2)Oc2ccc(cc2Cl)C1O` (centres unmarked) [Compound 124, 4-cyclohexyloxybenzyl] has an MIC [1] of 1 µg/mL (≈ 0.562 µM), an MIC (Entercoccus faecalis 276) of at most 0.06 µg/mL and an MIC [2] of at most 0.06 µg/mL. For the same compound, the MIC (Pediococcus pentosaceus) was 16 µg/mL (≈ 8.99 µM), the MIC (Lactobacillus confusus) was 16 µg/mL (≈ 8.99 µM) and the MIC [3] was 16 µg/mL (≈ 8.99 µM). For the same compound, the MIC (Pedicoccus acidilacti) was 20 µg/mL (≈ 11.2 µM), the MIC [4] was 64 µg/mL (≈ 35.9 µM) and the MIC (Leuconostoc citreum) was 64 µg/mL (≈ 35.9 µM). It also gave an MIC (Leuconostoc lactis) of 16 µg/mL (≈ 8.99 µM).
In the case of `CNC(CC(C)C)C(=O)NC1C(=O)NC(CC(N)=O)C(=O)NC2C(=O)NC3C(=O)NC(C(=O)NC(C(=O)O)c4cc(O)cc(O)c4-c4cc3ccc4O)C(OC3CC(C)(N)C(O)C(C)O3)c3ccc(c(Cl)c3)Oc3cc2cc(c3OC2OC(CO)C(O)C(O)C2OC2CC(C)(NCc3ccc4c(c3)Cc3ccccc3-4)C(O)C(C)O2)Oc2ccc(cc2Cl)C1O` (centres unmarked) [Compound 32, 2-fluorenylmethyl], the MIC (Pediococcus pentosaceus) is reported as 16 µg/mL (≈ 9.04 µM), the MIC (Lactobacillus confusus) is reported as 16 µg/mL (≈ 9.04 µM) and the MIC [3] is reported as 16 µg/mL (≈ 9.04 µM). It also gave an MIC (Leuconostoc citreum) of 64 µg/mL (≈ 36.1 µM) and an MIC (Leuconostoc lactis) of 16 µg/mL (≈ 9.04 µM).
